Results: patent publication US6274557A, “Inhibition of nitric oxide synthase by amino acids and dipeptides” (Northwestern University, priority 1999, dated 2001)
Several values for one entry are separate records, joined by “and”; a condition that tells them apart may be missing. Equal entries are not always repeated. Where two headings read alike, the source gives them in different places. Peptide text beside a SMILES is read from it.

Tests used:
[1] = biological target: neuronal nitric oxide synthase (nNOS) from bovine brain (Bos taurus, UniProt A0A3Q1M6M2); assay: Hemoglobin capture assay of nitric oxide formation, nNOS; conditions: for most potent inhibitors (based on isoform inhibition data): dipeptide amides of Table 3; for nNOS/iNOS selectivity / nNOS/eNOS selectivity: Table 2 dipeptides; for nNOS/iNOS selectivity: in favor of nNOS over iNOS; for nNOS/eNOS selectivity: nNOS over eNOS; for time-dependent inhibition of any of the isoforms: nNOS, iNOS and eNOS
Experimental: (§1) Nitric oxide formation was measured by using the hemoglobin capture assay. […] The production of nitric oxide by eNOS was measured as described. […] All assays were in a final volume of 600 μL and were initiated with enzyme.
(§2) The reversible inhibition of NOS by the dipeptide analogs was studied under initial rate conditions with the hemoglobin assay as described above. […] With various L-arginine and inhibitor concentrations.

[2] = biological target: T1, recombinant bovine endothelial nitric oxide synthase (eNOS) (Bos taurus, UniProt P29473); assay: Hemoglobin capture assay of nitric oxide formation, eNOS; type: biochemical
T1 construct: made in house; host or cells: E. coli
Experimental: as §1, §2

[3] = biological target: recombinant murine macrophage nitric oxide synthase (iNOS) (Mus musculus, UniProt P29477); assay: Hemoglobin capture assay of nitric oxide formation, iNOS; conditions: for iNOS/eNOS selectivity: Table 2 dipeptides
Experimental: as §1, §2

[4] = read-out: Ki nNOS, Table 2, Dixon plots
[5] = read-out: Ki iNOS, Table 2, Dixon plots, ^a = uncompetitive inhibition

neuronal nitric oxide synthase (nNOS) from bovine brain, sequence (A0A3Q1M6M2 entry or part of it): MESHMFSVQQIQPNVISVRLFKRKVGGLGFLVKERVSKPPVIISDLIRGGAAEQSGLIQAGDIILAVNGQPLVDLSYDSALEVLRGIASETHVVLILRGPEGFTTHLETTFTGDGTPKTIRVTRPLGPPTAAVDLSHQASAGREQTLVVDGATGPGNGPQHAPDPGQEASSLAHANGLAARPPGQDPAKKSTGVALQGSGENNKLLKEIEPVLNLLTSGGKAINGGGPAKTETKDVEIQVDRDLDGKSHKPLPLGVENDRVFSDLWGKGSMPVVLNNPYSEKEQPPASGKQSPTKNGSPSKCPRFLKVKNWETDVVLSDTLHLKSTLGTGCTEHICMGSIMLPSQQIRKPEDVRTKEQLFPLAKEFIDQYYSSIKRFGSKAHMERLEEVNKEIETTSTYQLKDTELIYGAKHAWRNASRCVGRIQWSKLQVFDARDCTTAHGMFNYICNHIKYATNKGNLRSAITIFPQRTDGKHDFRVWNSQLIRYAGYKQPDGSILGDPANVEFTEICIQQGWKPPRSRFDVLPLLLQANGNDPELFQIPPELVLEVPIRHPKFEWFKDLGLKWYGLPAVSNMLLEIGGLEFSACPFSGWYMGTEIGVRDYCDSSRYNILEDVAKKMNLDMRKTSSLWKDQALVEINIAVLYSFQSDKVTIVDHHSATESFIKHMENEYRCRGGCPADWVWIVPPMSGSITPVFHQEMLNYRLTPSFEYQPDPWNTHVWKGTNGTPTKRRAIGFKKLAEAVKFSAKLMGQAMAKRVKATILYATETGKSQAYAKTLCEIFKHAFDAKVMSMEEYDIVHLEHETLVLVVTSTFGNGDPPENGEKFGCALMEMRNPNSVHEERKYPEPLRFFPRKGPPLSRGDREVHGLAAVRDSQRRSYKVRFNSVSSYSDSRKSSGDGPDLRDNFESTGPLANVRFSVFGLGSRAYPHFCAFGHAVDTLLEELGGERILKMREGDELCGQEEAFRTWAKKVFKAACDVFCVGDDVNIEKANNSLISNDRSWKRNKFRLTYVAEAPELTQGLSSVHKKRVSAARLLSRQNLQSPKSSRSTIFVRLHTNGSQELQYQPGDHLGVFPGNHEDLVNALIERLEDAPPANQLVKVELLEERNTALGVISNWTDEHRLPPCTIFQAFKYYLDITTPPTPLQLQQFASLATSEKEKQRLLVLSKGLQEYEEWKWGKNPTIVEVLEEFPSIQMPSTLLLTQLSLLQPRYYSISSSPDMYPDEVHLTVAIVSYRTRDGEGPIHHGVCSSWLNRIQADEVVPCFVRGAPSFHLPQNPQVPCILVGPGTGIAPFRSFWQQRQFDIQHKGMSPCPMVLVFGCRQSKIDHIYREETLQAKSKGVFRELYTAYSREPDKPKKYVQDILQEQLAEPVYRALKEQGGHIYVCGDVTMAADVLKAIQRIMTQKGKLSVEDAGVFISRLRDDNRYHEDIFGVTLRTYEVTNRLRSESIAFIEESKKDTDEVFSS

Compound	most potent inhibitors (based on isoform inhibition data) [1]	Ki ([2]; Table 2, Dixon plots) [µM]	nNOS/iNOS selectivity [1]	nNOS/eNOS selectivity [1]	Ki [1, 4] [µM]	iNOS/eNOS selectivity [3]	Ki [3, 5] [µM]	further results
N=C(NCCC[C@@H](NC(=O)[C@H](N)CCCCN)C(N)=O)N[N+](=O)[O-] [D-Lys-D-nitroArg] (HELM PEPTIDE1{[dK].[N=C(NCCC[C@@H](N[*:1])C(=O)[*:2])N[N+](=O)[O-]].[am]}$$$$V2.0)	most potent							
N=C(NCCC[C@@H](NC(=O)[C@H](N)CCCN)C(N)=O)N[N+](=O)[O-] [D-Orn-D-nitroArg] (HELM PEPTIDE1{[NCCC[C@@H](N)C(=O)[*:2]].[N=C(NCCC[C@@H](N[*:1])C(=O)[*:2])N[N+](=O)[O-]].[am]}$$$$V2.0)	most potent							
N=C(NCCC[C@@H](NC(=O)[C@@H](N)Cc1cnc[nH]1)C(N)=O)N[N+](=O)[O-] [L-His-D-nitroArg] (HELM PEPTIDE1{H.[N=C(NCCC[C@@H](N[*:1])C(=O)[*:2])N[N+](=O)[O-]].[am]}$$$$V2.0)	most potent							
N=C(NCCC[C@@H](NC(=O)[C@@H](N)CCCCN)C(N)=O)N[N+](=O)[O-] [L-Lys-D-nitroArg] (HELM PEPTIDE1{K.[N=C(NCCC[C@@H](N[*:1])C(=O)[*:2])N[N+](=O)[O-]].[am]}$$$$V2.0)	most potent							
N=C(NCCC[C@H](N)C(=O)N[C@H](CC(N)=O)C(N)=O)N[N+](=O)[O-] [L-nitroArg-D-Asn] (HELM PEPTIDE1{[N=C(NCCC[C@H](N)C(=O)[*:2])N[N+](=O)[O-]].[dN].[am]}$$$$V2.0)	most potent							
N=C(NCCC[C@H](N)C(=O)N[C@H](CCC(N)=O)C(N)=O)N[N+](=O)[O-] [L-nitroArg-D-Gln] (HELM PEPTIDE1{[N=C(NCCC[C@H](N)C(=O)[*:2])N[N+](=O)[O-]].[dQ].[am]}$$$$V2.0)	most potent							
N=C(NCCC[C@H](N)C(=O)N[C@@H](CCN)C(=O)O)N[N+](=O)[O-] [L-nitroArg-L-Dbu, L-nitroArg-L-2,4-diaminobutanoic acid] (HELM PEPTIDE1{[N=C(NCCC[C@H](N)C(=O)[*:2])N[N+](=O)[O-]].[Dab]}$$$$V2.0)	most potent							
N=C(NCCC[C@H](N)C(=O)N[C@@H](CN)C(=O)O)N[N+](=O)[O-] [L-nitroArg-L-Dpr, L-nitroArg-L-2,3-diaminopropanoic acid] (HELM PEPTIDE1{[N=C(NCCC[C@H](N)C(=O)[*:2])N[N+](=O)[O-]].[NC[C@H](N[*:1])C(=O)O]}$$$$V2.0)	most potent							
C=CCNC(=N)NCCC[C@H](N)C(=O)O [allyl, N^ω -allyl-L-arginine, reference compound]								Ki ([2]; Table 1): 3.1 µM; Ki [1]: 0.2 µM; Selectivity nNOS/eNOS [1]: 15 and 15.5; Ki [3]: 2.1 µM
N=C(NCCC[C@H](N)C(=O)N[C@@H](Cc1ccccc1)C(=O)O)N[N+](=O)[O-] [compound 1, L-Arg^NO2 L-Phe]		395	8.9	21.9	18	2.5	160	time-dependent inhibition of any of the isoforms [1]: None
N=C(NCCC[C@H](NC(=O)[C@@H](N)Cc1ccccc1)C(=O)O)N[N+](=O)[O-] [compound 2, L-Phe-L-Arg^NO2] (HELM PEPTIDE1{F.[N=C(NCCC[C@H](N[*:1])C(=O)O)N[N+](=O)[O-]]}$$$$V2.0)		490	0.66	3.5	140	5.3	93	time-dependent inhibition of any of the isoforms [1]: None
COC(=O)[C@H](Cc1ccccc1)NC(=O)[C@@H](N)CCCNC(=N)N[N+](=O)[O-] [compound 3, L-Arg^NO2 -L-Phe-OMe]		400	3.2	28.6	14	8.9	45	
COC(=O)[C@H](CCCNC(=N)N[N+](=O)[O-])NC(=O)[C@@H](N)Cc1ccccc1 [compound 4, L-Phe-L-Arg^NO2 -OMe] (HELM PEPTIDE1{F.[N=C(NCCC[C@H](N[*:1])C(=O)[*:2])N[N+](=O)[O-]].[CO[*:1]]}$$$$V2.0)		1350	0.55	3.6	370	6.6	204	
N=C(NCCC[C@H](N)C(=O)N[C@@H](Cc1ccccc1)C(=O)OCc1ccccc1)N[N+](=O)[O-] [compound 5, L-Arg^NO2 -L-Phe-OBn]		125	0.33	2.3	55	6.9	18	
N=C(NCCC[C@H](NC(=O)[C@@H](N)Cc1ccccc1)C(=O)OCc1ccccc1)N[N+](=O)[O-] [compound 6, L-Phe-L-Arg^NO2 -OBn] (HELM PEPTIDE1{F.[N=C(NCCC[C@H](N[*:1])C(=O)[*:2])N[N+](=O)[O-]].[c1ccc(CO[*:1])cc1]}$$$$V2.0)		250	0.41	2.3	110	5.6	45	
COC(=O)[C@@H](Cc1ccccc1)NC(=O)[C@@H](N)CCCNC(=N)N[N+](=O)[O-] [compound 7, L-Arg^NO2 -D-Phe-OMe]		525	1.1	5.7	92	5.3	100	
COC(=O)[C@H](Cc1ccccc1)NC(=O)[C@H](N)CCCNC(=N)N[N+](=O)[O-] [compound 8, D-Arg^NO2 -L-Phe-OMe]		1400	22.1	4.8	290	0.22	6400	
COC(=O)[C@@H](Cc1ccccc1)NC(=O)[C@H](N)CCCNC(=N)N[N+](=O)[O-] [compound 9, D-Arg^NO2 -D-Phe-OMe]		375	43.3	2.5	150	0.058	6500	
COC(=O)[C@@H](CCCNC(=N)N[N+](=O)[O-])NC(=O)[C@@H](N)Cc1ccccc1 [compound 10, L-Phe-D-Arg^NO2 -OMe] (HELM PEPTIDE1{F.[N=C(NCCC[C@@H](N[*:1])C(=O)[*:2])N[N+](=O)[O-]].[CO[*:1]]}$$$$V2.0)		150	83.3	1.7	90	0.02	7500	
COC(=O)[C@H](CCCNC(=N)N[N+](=O)[O-])NC(=O)[C@H](N)Cc1ccccc1 [compound 11, D-Phe-L-Arg^NO2 -OMe] (HELM PEPTIDE1{[dF].[N=C(NCCC[C@H](N[*:1])C(=O)[*:2])N[N+](=O)[O-]].[CO[*:1]]}$$$$V2.0)		8500	3	21.3	400	7.1	1200	
CNC(=N)NCCC[C@H](N)C(=O)O [methyl, N^ω -methyl-L-arginine, reference compound]								IC50 [1]: 10 µM
C#CCNC(=N)NCCC[C@H](N)C(=O)O [propargyl, N^ω -propargyl-L-arginine, reference compound]								Ki [1]: 0.43 µM
